Data from PMC7887271, “Fast acting allosteric phosphofructokinase inhibitors block trypanosome glycolysis and cure acute African trypanosomiasis in mice” (Nature Communications, 2021).
Several values for one entry are separate records, joined by “and”; a condition that tells them apart may be missing. Identical values can stand only once.

What was measured:
T. b. brucei GVR35-Luc2 = T. b. brucei GVR35-Luc2 time-to-kill assay (luciferin); format: cell-based; conditions: for Luminescence, Average / Luminescence, individual replicates: Time to kill assay for GVR35 cells
Experimental: Enzyme activity was measured using an aldolase/TIM linked assay at 25 °C. […] Experiments were carried out in duplicate. Data are presented as mean values ± standard deviation. […] Source data are provided as a Source Data File. b Kill time of CTCB-405 compared with existing HAT drugs in the clinic. […] Over 99% of trypanosomes were killed in under 30 min compared with much slower killing rates for the other drugs. The points on the graph for CTCB-405 were determined from two independent biological replicate experiments with each time point measured twice (using duplicate technical replicates). The ESD for each point on the graph is between 0.7 and 1.4%. For drugs in clinical use each point on the graph is the average of two technical replicates from one experiment (with a maximum difference of 7.8% for any of the points). Source data are provided as a Source Data File.
As predicted from the biology of the BSF that relies wholly on glycolysis for ATP production, inhibition of the pathway results in a very fast TTK. Two experimental methods were used to measure ATP levels as a real-time indicator of viability. For Tb427 parasites, a Cell Titre Glo kit was used and for the TbGVR35 bioluminescent strain, killing was assessed by adding luciferin which requires ATP to produce a luminescent signal (Supplementary Methods 4.3 and 4.4). […] The BSF of T. brucei cannot produce ATP by oxidative phosphorylation and is solely dependent on flux through the glycolytic pathway. The clear correlation between inhibitor dose and reduction in ATP production, as observed in the TTK assays strongly supports the proposed mode of action of the CTCB compounds is by blocking glycolysis. It is a long-established experimental observation that withdrawal of glucose nutrient leads to rapid loss of motility and cell death. It has recently been shown that the BSF of T. brucei can proliferate on high levels of glycerol; however, we have shown that addition of glycerol to the medium has little effect on parasite killing by the CTCB compounds (Supplementary Table 3).
The killing of T. b. brucei GVR35-Luc2 was assessed by adding D-luciferin to live cells resulting in the production of light in the presence of ATP and luciferase activity. Compounds of interest were serially diluted from 16 µM to 0.5 µM in Modified HMI-9 medium and added into sterile white, flat bottom 96-well plate (Greiner Inc.). 32,000 trypanosomes were added to each well. The plates were incubated at 37 °C and 5% CO2. At the end of each incubation, 200 µg/ml of D-luciferin was added to each well and incubated for 10 min. Luminescence was measured using a BMG plate reader and percentage cell viability versus incubation time was determined.

T. b. brucei GVR35-luc = assay: Wash-out studies, GVR35; format: cell-based; conditions: concentrations greater than 2 to 4 µM, exposure longer than 4-6 hours, 3 days in drug free medium
Experimental: In vitro ‘wash-out’ studies were performed to determine the reversibility of the action of the CTCB compounds on trypanosomes, after a certain exposure time, and thus to assess whether the compounds have a trypanocidal or trypanostatic effect. These experiments were carried out with both the T. b. brucei Lister 427 and T. b. brucei GVR35-luc strains. Trypanosomes at a density of 500,000 cells/ml in culture medium were incubated with CTCB compounds at varying concentrations in 12-well plates in volumes of 1 ml for different periods of time at 37°C. Subsequently, the cultures were centrifuged for 5 min at 2600 x g, the cells washed by re-suspending the pellets in 1 ml medium without inhibitors, centrifuged again and re-suspended in 1 ml fresh medium. The cell suspensions were then incubated under regular culture conditions for 3 days and parasite growth monitored daily by light microscopy.
The results for both strains are similar with no grow-back at concentrations of CTCB compounds greater than 2 to 4 µM with drug exposure longer than 4-6 hours.

T. b. rhodesiense = assay: EC50 against in vitro cultured T. b. rhodesiense (STMI); format: cell-based; conditions: Trypanosoma brucei
CYP2C19 = target: T1, CYP2C19 (Homo sapiens, UniProt P33261); assay: Inhibition of CYP2C19; format: in vitro ADME; conditions: CYP450 isoform inhibition kit (BD Biosciences), probe CEC
T1 construct: purchased BD Biosciences
T1 sequence (P33261 whole entry, canonical isoform): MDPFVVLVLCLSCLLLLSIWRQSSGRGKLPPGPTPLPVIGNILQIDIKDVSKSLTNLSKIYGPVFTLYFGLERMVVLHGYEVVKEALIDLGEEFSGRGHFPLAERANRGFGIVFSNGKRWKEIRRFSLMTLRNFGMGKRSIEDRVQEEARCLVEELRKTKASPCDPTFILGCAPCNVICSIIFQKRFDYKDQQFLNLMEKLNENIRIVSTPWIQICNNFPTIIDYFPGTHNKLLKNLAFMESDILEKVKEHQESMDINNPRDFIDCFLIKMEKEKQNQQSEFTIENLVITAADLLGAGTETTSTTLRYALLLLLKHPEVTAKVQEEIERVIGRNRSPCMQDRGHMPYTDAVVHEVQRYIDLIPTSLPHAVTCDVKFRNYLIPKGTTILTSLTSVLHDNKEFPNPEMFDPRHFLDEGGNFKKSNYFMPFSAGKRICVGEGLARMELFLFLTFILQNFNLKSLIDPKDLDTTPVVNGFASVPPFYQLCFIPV
Experimental: A HepG2 cytotoxicity assay was used to determine a cellular selectivity index. HepG2 cells were seeded into 96-well plates in EMEM medium. Compounds were assessed for their effect upon cellular viability (Supplementary Methods 5.1). Inhibition of CYP450 was determined using kits from BD Biosciences (Supplementary Methods 5.2). Metabolic stability was determined using mouse […] tested at a single concentration of 5 µM. Plasma protein binding was determined using mouse and human plasma at a single concentration of 10 µM (Supplementary Methods 5.4). All PK studies in mice were carried out by Pharmidex (Supplementary Methods 6.1).
The compounds were investigated for their inhibitory effect on cytochrome P450 (CYP450) activity using five CYP450 isoforms (with fluorescent substrates in brackets): 3A4 (two substrates, BFC and DBF), 2D6 (AMMC), 2C9 (MFC), 2C19 (CEC) and 1A2 (CEC). Kits from BD Biosciences were used along with the method described by the manufacturer. […] Fluorescence was measured using a SpectraMax M5 plate reader.

Human hERG = Human hERG (Homo sapiens, UniProt Q12809); assay: Human hERG inhibition
Human hERG, sequence (Q12809 whole entry): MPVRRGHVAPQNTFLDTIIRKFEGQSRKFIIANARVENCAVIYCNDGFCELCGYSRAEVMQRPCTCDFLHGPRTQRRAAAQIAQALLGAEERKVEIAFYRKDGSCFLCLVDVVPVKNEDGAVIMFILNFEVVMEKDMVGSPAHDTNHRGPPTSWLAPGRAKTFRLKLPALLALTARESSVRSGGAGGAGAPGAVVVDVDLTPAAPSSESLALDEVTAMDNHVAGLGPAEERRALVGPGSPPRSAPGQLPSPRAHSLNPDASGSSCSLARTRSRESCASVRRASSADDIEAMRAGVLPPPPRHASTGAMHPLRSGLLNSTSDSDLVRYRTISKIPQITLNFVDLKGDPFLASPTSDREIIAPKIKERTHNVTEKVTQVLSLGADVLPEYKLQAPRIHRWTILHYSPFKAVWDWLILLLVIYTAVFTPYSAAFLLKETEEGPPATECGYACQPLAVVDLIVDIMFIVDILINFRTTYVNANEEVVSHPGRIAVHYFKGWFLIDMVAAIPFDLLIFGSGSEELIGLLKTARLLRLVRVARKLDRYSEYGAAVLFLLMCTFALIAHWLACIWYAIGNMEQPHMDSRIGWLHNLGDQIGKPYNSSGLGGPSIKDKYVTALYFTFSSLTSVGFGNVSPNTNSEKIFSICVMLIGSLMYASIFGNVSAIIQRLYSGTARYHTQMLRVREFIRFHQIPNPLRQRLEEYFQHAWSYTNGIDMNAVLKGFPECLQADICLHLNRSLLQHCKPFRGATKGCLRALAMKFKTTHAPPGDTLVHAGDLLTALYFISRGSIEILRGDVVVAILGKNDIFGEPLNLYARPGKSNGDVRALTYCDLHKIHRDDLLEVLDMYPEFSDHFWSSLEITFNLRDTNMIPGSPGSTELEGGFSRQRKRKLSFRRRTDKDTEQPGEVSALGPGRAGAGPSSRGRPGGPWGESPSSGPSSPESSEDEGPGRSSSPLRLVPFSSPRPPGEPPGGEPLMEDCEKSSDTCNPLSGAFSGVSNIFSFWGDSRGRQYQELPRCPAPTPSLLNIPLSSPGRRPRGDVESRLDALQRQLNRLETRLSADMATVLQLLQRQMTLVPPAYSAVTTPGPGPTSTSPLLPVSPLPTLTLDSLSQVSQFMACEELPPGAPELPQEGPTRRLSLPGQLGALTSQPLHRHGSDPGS
From the text: Methods are described in Supplementary Methods 5 and 6. Enzyme assay results are means ± SD in multiple assays. ADME results are averages of n = 2 or 3 measurements in individual assays.

MDCK-MDR1 = conditions: dog
[1] = GVR35 TTK, 24 h incubation, replicate wells

CN(C)CCn1ccc2c(ccn2Cc2ccc(Cl)c(Cl)c2)c1=O [CTCB-405, 1-[(3,4-Dichlorophenyl)methyl]-5-[2-(dimethylamino)ethyl] pyrrolo[3,2-c]pyridin-4-one]
trypanosomes killed in under 30 min (T. b. brucei GVR35-Luc2; 4 µM, GVR35 bioluminescent strain): Over 99% | % Cell viability, single replicates (T. b. brucei GVR35-Luc2; 0.5 h): 0.291% and 2.73% | % Inhibition, single replicates (T. b. brucei GVR35-Luc2; 0.5 h): 100% and 97% | % Cell viability (T. b. brucei GVR35-Luc2; 0.5 h, average): 1.49% and 1.51% | % Inhibition (T. b. brucei GVR35-Luc2; 0.5 h, mean, suramin, fexinidazole, SCYX-7158 11 µM, CTCB-405 4 µM): 99% | % Cell viability, single replicates (T. b. brucei GVR35-Luc2; 1 h): -0.108% and -1% | % Inhibition, single replicates (T. b. brucei GVR35-Luc2; 1 h): 100% and 101% | % Inhibition (T. b. brucei GVR35-Luc2; 1 h, mean, suramin, fexinidazole, SCYX-7158 11 µM, CTCB-405 4 µM): 101% | % Cell viability, single replicates (T. b. brucei GVR35-Luc2; 2 h): -0.773% and 0.055% | % Inhibition, single replicates (T. b. brucei GVR35-Luc2; 2 h): 101% and 100% | % Cell viability (T. b. brucei GVR35-Luc2; 2 h, average): -0.345% and -0.359% | % Inhibition (T. b. brucei GVR35-Luc2; 2 h, mean, suramin, fexinidazole, SCYX-7158 11 µM, CTCB-405 4 µM): 100% | % Cell viability, single replicates (T. b. brucei GVR35-Luc2; 4 h): -0.741% and -0.843% | % Inhibition, single replicates (T. b. brucei GVR35-Luc2; 4 h): 101% | % Cell viability (T. b. brucei GVR35-Luc2; 4 h, average): -0.791% and 0% and -0.792% | % Inhibition (T. b. brucei GVR35-Luc2; 4 h, mean, suramin, fexinidazole, SCYX-7158 11 µM, CTCB-405 4 µM): 101% | % Cell viability, single replicates (T. b. brucei GVR35-Luc2; 6 h): -0.633% and -0.494% | % Inhibition, single replicates (T. b. brucei GVR35-Luc2; 6 h): 101% and 100% | % Cell viability (T. b. brucei GVR35-Luc2; 6 h, average): -0.563% and -0.564% | % Inhibition (T. b. brucei GVR35-Luc2; 6 h, mean, suramin, fexinidazole, SCYX-7158 11 µM, CTCB-405 4 µM): 101% | % Cell viability, single replicates (T. b. brucei GVR35-Luc2; 8 h): -0.333% and -0.376% | % Inhibition, single replicates (T. b. brucei GVR35-Luc2; 8 h): 100% | % Cell viability (T. b. brucei GVR35-Luc2; 8 h, average): -0.354% | % Inhibition (T. b. brucei GVR35-Luc2; 8 h, mean, suramin, fexinidazole, SCYX-7158 11 µM, CTCB-405 4 µM): 100% | % Cell viability, Average (T. b. brucei GVR35-Luc2; GVR35 TTK, 24 h incubation, average): -0.0941% | Luminescence (medium-subtracted), Average (T. b. brucei GVR35-Luc2; GVR35 TTK, 24 h incubation, average of replicates): -1 | % Inhibition (T. b. brucei GVR35-Luc2; GVR35 TTK, 24 h incubation, from average): 100% | % Cell viability, individual replicates (T. b. brucei GVR35-Luc2; [1]): -0.0906% and -0.0976% | % Inhibition, individual replicates (T. b. brucei GVR35-Luc2; [1]): 100% | Luminescence (medium-subtracted), individual replicates (T. b. brucei GVR35-Luc2; [1]): -8.5 and 6.5 | % Cell viability (T. b. brucei GVR35-Luc2; GVR35 TTK, 24 h sheet, summary line marked "4"): -0.0937% | Luminescence, Average (T. b. brucei GVR35-Luc2; 0.5 hour incubation): 184 | Luminescence, individual replicates (T. b. brucei GVR35-Luc2; 0.5 hour incubation): 76 and 293 | Luminescence, Average (T. b. brucei GVR35-Luc2; 1hour incubation): 41 | Luminescence, individual replicates (T. b. brucei GVR35-Luc2; 1hour incubation): 96 and -14 | Luminescence, Average (T. b. brucei GVR35-Luc2; 2hour incubation): 40 | Luminescence, individual replicates (T. b. brucei GVR35-Luc2; 2hour incubation): -17 and 96 | Luminescence, Average (T. b. brucei GVR35-Luc2; 4hour incubation): -33 | Luminescence, individual replicates (T. b. brucei GVR35-Luc2; 4hour incubation): -26 and -40 | Luminescence, Average (T. b. brucei GVR35-Luc2; 6hour incubation): -24 | Luminescence, individual replicates (T. b. brucei GVR35-Luc2; 6hour incubation): -47 and -1 | Luminescence, Average (T. b. brucei GVR35-Luc2; 8hour incubation): 13 | Luminescence, individual replicates (T. b. brucei GVR35-Luc2; 8hour incubation): 20 and 6 | Luminescence, Average (T. b. brucei GVR35-Luc2; 24hour incubation): -1 | Luminescence, individual replicates (T. b. brucei GVR35-Luc2; 24hour incubation): -8.5 and 6.5 | wash-out: grow-back after removal of drug (T. b. brucei GVR35-luc): no grow-back | EC50 (T. b. rhodesiense): 250 nM | inhibition at 10 µM (CYP2C19): 64% | IC50 (Human hERG): 3980 nM | MDCK-MDR1 A-B (MDCK-MDR1): 17.6 | MDCK-MDR1 B-A (MDCK-MDR1): 17.2
